Experimental data as given in patent US9249132B2, “Substituted bicyclic aromatic compounds as S-nitrosoglutathione reductase inhibitors” (Nivalis Therapeutics, Inc., priority 2010, dated 2016).

Key:
[1] = target: T1, GSNOR (Homo sapiens, UniProt P11766); assay: GSNOR assay (inhibition of GSNOR activity, change in 340 nm absorbance); assay type: biochemical; conditions: 100 mM NaPO4 pH 7.4, 0.240 mM GSNO, 0.300 mM NADH, 0.5 μg/mL GSNO Reductase, 1% DMSO, 25° C.
T1 construct: made in house; host or cells: E. coli
T1 sequence (P11766 whole entry): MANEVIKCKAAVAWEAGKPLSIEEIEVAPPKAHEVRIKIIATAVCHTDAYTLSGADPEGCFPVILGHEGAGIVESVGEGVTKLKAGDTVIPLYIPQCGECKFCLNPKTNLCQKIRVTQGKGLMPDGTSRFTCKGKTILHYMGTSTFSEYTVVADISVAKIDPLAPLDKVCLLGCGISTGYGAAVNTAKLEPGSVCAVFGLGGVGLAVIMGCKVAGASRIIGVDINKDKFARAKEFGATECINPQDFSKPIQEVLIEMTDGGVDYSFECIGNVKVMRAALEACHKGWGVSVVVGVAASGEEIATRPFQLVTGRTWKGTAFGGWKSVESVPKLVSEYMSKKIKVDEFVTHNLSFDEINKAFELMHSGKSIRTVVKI
Protocol: Various compounds were tested in vitro for their ability to inhibit GSNOR activity.
GSNOR expression and purification is described in Biochemistry 2000, 39, 10720-10729.
GSNOR Fermentation: Pre-cultures were grown from stabs of a GSNOR glycerol stock in 2XYT media containing 100 ug/ml ampicillin after an overnight incubation at 37° C. Cells were then added to fresh 2XYT (4 L) containing ampicillin and grown to an OD (A600) of 0.6-0.9 at 37° C. before induction. GSNOR expression was induced with 0.1% arabinose in an overnight incubation at 20° C.
GSNOR Purification: E. coli cell paste was lysed by nitrogen cavitation and the clarified lysate purified by Ni affinity chromatography on an AKTA FPLC (Amersham Pharmacia). The column was eluted in 20 mM Tris pH 8.0/250 mM NaCl with a 0-500 mM imidazole gradient. Eluted GSNOR fractions containing the Smt-GSNOR fusion were digested overnight with Ulp-1 at 4° C. to remove the affinity tag then re-run on the Ni column under the same conditions. GSNOR was recovered in the flowthrough fraction and for crystallography is further purified by Q-Sepharose and Heparin flowthrough chromatography in 20 mM Tris pH 8.0, 1 mM DTT, 10 uM ZnSO4.
GSNOR Assay: GSNO and enzyme/NADH Solutions are made up fresh each day. The solutions are filtered and allowed to warm to room temperature. GSNO solution: 100 mM NaPO4 (pH 7.4), 0.480 mM GSNO. 396 μL of GSNO Solution is added to a cuvette followed by 8 μL of test compound in DMSO (or DMSO only for full reaction control) and mixed with the pipette tip. Compounds to be tested are made up at a stock concentration of 10 mM in 100% DMSO. 2 fold serial dilutions are done in 100% DMSO. 8 μL of each dilution are added to an assay so that the final concentration of DMSO in the assay is 1%. The concentrations of compounds tested range from 100 to 0.003 μM. Enzyme/NADH solution: 100 mM NaPO4 (pH 7.4), 0.600 mM NADH, 1.0 μg/mL GSNO Reductase. 396 μL of the Enzyme/NADH solution is added to the cuvette to start the reaction. The cuvette is placed in the Cary 3E UV/Visible Spectrophotometer and the change in 340 nm absorbance/min at 25° C. is recorded for 3 minutes. The assays are done in triplicate for each compound concentration. IC50's for each compound are calculated using the standard curve analysis in the Enzyme Kinetics Module of SigmaPlot.
Final assay conditions: 100 mM NaPO4, pH 7.4, 0.240 mM GSNO, 0.300 mM NADH, 0.5 μg/mL GSNO Reductase, and 1% DMSO. Final volume: 800 μL/cuvette.

[2] = Mouse pharmacokinetic (PK) study; assay type: in vivo; conditions: plasma, male BALB/c mice, PO 10 mg/kg, IV 2 mg/kg
Text: The mouse was used to determine the pharmacokinetics of compounds of the invention. This species is widely used to assess the bioavailability of compounds by administering both oral (PO) and intravenous (IV) test articles. Efficacy of the compounds of the invention was compared by assessing plasma exposure in male BALB/c mice either via IV or PO administration at the times of peak activity.
Compounds of the invention were reconstituted in a phosphate buffered saline (PBS)/10% Solutol (HS 15) clear solution resulting in a concentration of 0.2 mg/mL and administered to mice (2 mg/kg) as a single IV dose. Animals were dosed via the lateral tail vein. […] The plasma was transferred into labeled polypropylene tubes and frozen at −70° C. until analyzed by LC/MS/MS.
The compounds of the invention were reconstituted in 40% Propylene Glycol/40% Propylene Carbonate/20% of a 5% Sucrose clear solution resulting in a concentration of 2 mg/mL and administered to mice (10 mg/kg) as a single oral dose via gavage. […] The plasma was transferred into labeled polypropylene tubes and frozen at −70° C. until analyzed by LC/MS/MS.
Plasma samples at each timepoint were analyzed using a LC-MS/MS with a lower limit of quantification (LLOQ) of 1 ng/mL. […]
In addition to the above PK parameters, bioavailability (% F) was calculated.

[3] = tested on: dextran sodium sulfate (DSS)-induced IBD; assay: Chronic treatment model of DSS-induced IBD; assay type: in vivo, mouse
Text: Acute and chronic models of dextran sodium sulfate (DSS)-induced IBD in mice were used to explore efficacy of GSNORi against this disease. Acute and chronic DSS-induced IBD are widely used and well characterized models that induce pathological changes in the colon similar to those observed in the human disease. In these models and in human disease, epithelial cells within the crypts of the colon are disrupted, leading to dysfunction of the epithelial barrier and the ensuing tissue inflammation, edema, and ulceration. GSNORi therapy may benefit IBD by restoring s-nitrosoglutathione (GSNO) levels, and thus prevent or reverse the epithelial barrier dysfunction.
Experimental IBD was induced by administration of DSS in the drinking water of male C57B1/6 mice (N=10 to 12 mice per group) for 6 consecutive days. GSNORi was dosed orally at doses of 10 mg/kg/day for 14 days starting one day after cessation of DSS exposure. Efficacy of GSNORi was assessed in a blinded fashion via endoscopy after 7 days and 14 days of GSNORi dosing and via histopathology after 14 days of GSNORi dosing using a five point scale ranging from a score=0 (normal tissue) through a score=4 (ulcerative tissue damage and marked pathological changes). Levels of circulating cytokines involved in inflammatory pathways were also assessed. The effect of GSNORi was compared to vehicle treated controls. The corticosteroid, prednisolone, was used as the positive control in this study and was administered daily at 3 mg/kg/day via oral dosing. Naïve mice (N=5) were also assessed as a normal tissue control.

[4] = chronic model, oral 10 mg/kg/day for up to 14 consecutive days, treatment dosing regimen

Compound: O=C(O)c1ccc(-c2ccc3cc(O)ccc3c2)c(Cl)c1 [Example 1, 3-chloro-4-(6-hydroxynaphthalen-2-yl)benzoic acid]
- IC50 [1]: < 50 nM
- bioavailability [2]: > 40%
- colon injury (in words) ([3]; chronic DSS-induced IBD): attenuated colon injury
- decrease of percent of mice presenting with severe colon injury scores via endoscopy, of vehicle control [3, 4]: 50%
- decrease of percent of mice presenting with severe colon injury scores via histopathology, of vehicle control [3, 4]: 17%
